Source: patent publication US11753407B2, “Compounds for treating spinal muscular atrophy” (PTC Therapeutics, Inc., priority 2012, dated 2023)

Key:
[1] = tested on: SMN2 minigene mRNA (SMN2-A minigene) in HEK293H cells; assay: SMN2 minigene mRNA splicing RT-qPCR assay in cultured cells; type: cell-based, human; settings: Homo sapiens, HEK293-H; concentration increasing full length SMN2 mRNA 1.5-fold relative to vehicle-treated cells; HEK293H cells with SMN2-A minigene, 24 hours, 7-point concentration data; read-out: EC1.5x for production of full length SMN2 mRNA
Method in brief: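 EC1.5× values derive from a 24 h treatment of SMN2-A minigene HEK293H cells and GAPDH-normalized RT-qPCR of exon 7-included minigene mRNA relative to vehicle-treated cells.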

[2] = tested on: Smn protein in SMA patient fibroblast cells (GM03813); assay: Smn protein assay in cultured cells (SMN HTRF); type: cell-based, human; settings: SMA patient fibroblast cells, 48 hours; for maximum fold (Fold) increase of Smn protein: 7-point concentration data, fold relative to vehicle control; for EC1.5x for Smn protein expression: 7-point concentration curve, SMN HTRF, concentration producing 1.5 times Smn protein vs DMSO vehicle control
Method in brief: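 Cells were cultured 72 h, seeded at 5,000/well and dosed with seven concentrations (3.16-fold apart) for 48 h. HTRF on lysates, read at 665 and 620 nm, gave blank-corrected ΔF values relative to DMSO. Potency is reported as EC1.5×, efficacy as maximal fold Smn increase.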

Structure (SMILES) | melting point [°C] | EC (1.5-fold increase) [1] [µM] | maximum fold (Fold) increase of Smn protein [2] | EC1.5x for Smn protein expression [2]
CCCN1CCN(c2ccc3nc(-c4ccc(OC)c(OC)c4)cc(=O)n3c2)CC1 [Compound 15, 2-(3,4-dimethoxyphenyl)-7-(4-propylpiperazin-1-yl)-4H-pyrido[1,2-a]pyrimidin-4-one] | 185 to 189 | 1 to 3 | *** (a fold increase between >1.35 and ≤1.5 is indicated by three stars (***)) | 
COc1ccc(-c2cc(=O)n3cc(N4CCCN(C)CC4)ccc3n2)cc1 [Compound 16, 2-(4-methoxyphenyl)-7-(4-methyl-1,4-diazepan-1-yl)-4H-pyrido[1,2-a]pyrimidin-4-one] | 137 to 141 | 1 to 3 | * (A maximum fold increase of ≤1.2 is indicated by one star (*)) | 
O=c1cc(-c2ccc3c(c2)OCO3)nc2ccc(N3CCNCC3)cn12 [Compound 18, 2-(1,3-benzodioxol-5-yl)-7-(piperazin-1-yl)-4H-pyrido[1,2-a]pyrimidin-4-one] | 198 to 201 | 0.3 to 1 | **** (a fold increase between >1.5 and ≤1.65 is indicated by four stars (****)) | ** (an EC1.5× between >1 μM and ≤3 μM is indicated by two stars (**))
CN1CCN(c2ccc3nc(-c4ccc5c(c4)OCO5)cc(=O)n3c2)CC1 [Compound 19, 2-(1,3-benzodioxol-5-yl)-7-(4-methylpiperazin-1-yl)-4H-pyrido[1,2-a]pyrimidin-4-one] | 235 to 237 | 1 to 3 | ** (a fold increase between >1.2 and ≤1.35 is indicated by two stars (**)) | 
C[C@@H]1CN(c2ccc3nc(-c4ccc5c(c4)OCO5)cc(=O)n3c2)CCN1 [Compound 20, 2-(1,3-benzodioxol-5-yl)-7-[(3R)-3-methylpiperazin-1-yl]-4H-pyrido[1,2-a]pyrimidin-4-one] | 195 to 197 | 1 to 3 | **** (a fold increase between >1.5 and ≤1.65 is indicated by four stars (****)) | ** (an EC1.5× between >1 μM and ≤3 μM is indicated by two stars (**))
COc1ccc(-c2cc(=O)n3cc(N4CCN[C@@H](C)C4)ccc3n2)cc1OC [Compound 30, 2-(3,4-dimethoxyphenyl)-7-[(3S)-3-methylpiperazin-1-yl]-4H-pyrido[1,2-a]pyrimidin-4-one] | 153 to 158 | < 0.1 | **** (a fold increase between >1.5 and ≤1.65 is indicated by four stars (****)) | ** (an EC1.5× between >1 μM and ≤3 μM is indicated by two stars (**))
O=c1cc(-c2ccc3c(c2)OCCO3)nc2ccc(N3CCNCC3)cn12 [Compound 31, 2-(2,3-dihydro-1,4-benzodioxin-6-yl)-7-(piperazin-1-yl)-4H-pyrido[1,2-a]pyrimidin-4-one] | 230 to 232 | 1 to 3 | * (A maximum fold increase of ≤1.2 is indicated by one star (*)) | 
C[C@H]1CN(c2ccc3nc(-c4ccc5c(c4)OCCO5)cc(=O)n3c2)CCN1 [Compound 32, 2-(2,3-dihydro-1,4-benzodioxin-6-yl)-7-[(3S)-3-methylpiperazin-1-yl]-4H-pyrido[1,2-a]pyrimidin-4-one] | 205 to 207 | 1 to 3 | * (A maximum fold increase of ≤1.2 is indicated by one star (*)) | 
O=c1cc(-c2ccccc2)nc2ccc(N3CCNCC3)cn12 [Compound 33, 2-phenyl-7-(piperazin-1-yl)-4H-pyrido[1,2-a]pyrimidin-4-one] | 151 to 153 | 1 to 3 | * (A maximum fold increase of ≤1.2 is indicated by one star (*)) | 
C[C@H]1CN(c2ccc3nc(-c4ccccc4)cc(=O)n3c2)CCN1 [Compound 34, 7-[(3S)-3-methylpiperazin-1-yl]-2-phenyl-4H-pyrido[1,2-a]pyrimidin-4-one] | 170 to 173 | 1 to 3 | ** (a fold increase between >1.2 and ≤1.35 is indicated by two stars (**)) | 
C[C@@H]1CN(c2ccc3nc(-c4ccc5c(c4)OCCO5)cc(=O)n3c2)CCN1 [Compound 35, 2-(2,3-dihydro-1,4-benzodioxin-6-yl)-7-[(3R)-3-methylpiperazin-1-yl]-4H-pyrido[1,2-a]pyrimidin-4-one] | 212 to 214 | 3 to 30 | * (A maximum fold increase of ≤1.2 is indicated by one star (*)) | 
CC1(C)CN(c2ccc3nc(-c4ccc5c(c4)OCCO5)cc(=O)n3c2)CCN1 [Compound 36, 2-(2,3-dihydro-1,4-benzodioxin-6-yl)-7-(3,3-dimethylpiperazin-1-yl)-4H-pyrido[1,2-a]pyrimidin-4-one] | 196 to 198 | 3 to 30 | * (A maximum fold increase of ≤1.2 is indicated by one star (*)) | 
O=c1cc(-c2ccc3c(c2)OCCO3)nc2ccc(N3CCCNCC3)cn12 [Compound 38, 7-(1,4-diazepan-1-yl)-2-(2,3-dihydro-1,4-benzodioxin-6-yl)-4H-pyrido[1,2-a]pyrimidin-4-one] | 180 to 182 | 3 to 30 | * (A maximum fold increase of ≤1.2 is indicated by one star (*)) | 

Continued, in another order:

melting point [°C] | Structure (SMILES) | EC (1.5-fold increase) [1] [µM] | maximum fold (Fold) increase of Smn protein [2] | EC1.5x for Smn protein expression [2]
182 to 187 | COc1ccc(-c2cc(=O)n3cc(N4C[C@@H](C)N[C@@H](C)C4)ccc3n2)cc1OC [Compound 14, 2-(3,4-dimethoxyphenyl)-7-[(3R,5S)-3,5-dimethylpiperazin-1-yl]-4H-pyrido[1,2-a]pyrimidin-4-one] | 1 to 3 | *** (a fold increase between >1.35 and ≤1.5 is indicated by three stars (***)) | 
198 to 201 | C[C@@H]1CN(c2ccc3nc(-c4ccc5c(c4)OCO5)cc(=O)n3c2)C[C@H](C)N1 [Compound 21, 2-(1,3-benzodioxol-5-yl)-7-[(3R,5S)-3,5-dimethylpiperazin-1-yl]-4H-pyrido[1,2-a]pyrimidin-4-one] | 3 to 30 | * (A maximum fold increase of ≤1.2 is indicated by one star (*)) | 
147 to 149 | COc1cccc(-c2cc(=O)n3cc(N4CCNCC4)ccc3n2)c1 [Compound 22, 2-(3-methoxyphenyl)-7-(piperazin-1-yl)-4H-pyrido[1,2-a]pyrimidin-4-one] | 0.3 to 1 | *** (a fold increase between >1.35 and ≤1.5 is indicated by three stars (***)) | ** (an EC1.5× between >1 μM and ≤3 μM is indicated by two stars (**))
173 to 175 | COc1cccc(-c2cc(=O)n3cc(N4CCN(C)CC4)ccc3n2)c1 [Compound 23, 2-(3-methoxyphenyl)-7-(4-methylpiperazin-1-yl)-4H-pyrido[1,2-a]pyrimidin-4-one] | 3 to 30 | *** (a fold increase between >1.35 and ≤1.5 is indicated by three stars (***)) | 
164 to 166 | COc1cccc(-c2cc(=O)n3cc(N4CCN[C@H](C)C4)ccc3n2)c1 [Compound 24, 2-(3-methoxyphenyl)-7-[(3R)-3-methylpiperazin-1-yl]-4H-pyrido[1,2-a]pyrimidin-4-one] | 1 to 3 | *** (a fold increase between >1.35 and ≤1.5 is indicated by three stars (***)) | * (An EC1.5× for Smn protein expression between >3 μM and ≤10 μM is indicated by one star (*))
189 to 191 | COc1cccc(-c2cc(=O)n3cc(N4C[C@@H](C)N[C@@H](C)C4)ccc3n2)c1 [Compound 25, 7-[(3R,5S)-3,5-dimethylpiperazin-1-yl]-2-(3-methoxyphenyl)-4H-pyrido[1,2-a]pyrimidin-4-one] | 1 to 3 | * (A maximum fold increase of ≤1.2 is indicated by one star (*)) | 
158 to 160 | CCN1CCN(c2ccc3nc(-c4cccc(OC)c4)cc(=O)n3c2)CC1 [Compound 26, 7-(4-ethylpiperazin-1-yl)-2-(3-methoxyphenyl)-4H-pyrido[1,2-a]pyrimidin-4-one] | 3 to 30 | ** (a fold increase between >1.2 and ≤1.35 is indicated by two stars (**)) | 
130 to 132 | COc1cccc(-c2cc(=O)n3cc(N4CCCN(C)CC4)ccc3n2)c1 [Compound 28, 2-(3-methoxyphenyl)-7-(4-methyl-1,4-diazepan-1-yl)-4H-pyrido[1,2-a]pyrimidin-4-one] | 3 to 30 | ** (a fold increase between >1.2 and ≤1.35 is indicated by two stars (**)) | 
247 to 250 | C[C@@H]1CN(c2ccc3nc(-c4ccc5c(c4)OCCO5)cc(=O)n3c2)C[C@H](C)N1 [Compound 37, 2-(2,3-dihydro-1,4-benzodioxin-6-yl)-7-[(3R,5S)-3,5-dimethylpiperazin-1-yl]-4H-pyrido[1,2-a]pyrimidin-4-one] | 1 to 3 | * (A maximum fold increase of ≤1.2 is indicated by one star (*)) | 
